From patent US20190002452A1 (GUANGZHOU HENOVCOM BIOSCIENCE CO., LTD, priority 2016, published 2019)

Molecular target: T1, human farnesol receptor protein hFXR (Homo sapiens, UniProt Q96RI1)
T1 construct: hexahistidine (His6)
T1 sequence (Q96RI1 1-486): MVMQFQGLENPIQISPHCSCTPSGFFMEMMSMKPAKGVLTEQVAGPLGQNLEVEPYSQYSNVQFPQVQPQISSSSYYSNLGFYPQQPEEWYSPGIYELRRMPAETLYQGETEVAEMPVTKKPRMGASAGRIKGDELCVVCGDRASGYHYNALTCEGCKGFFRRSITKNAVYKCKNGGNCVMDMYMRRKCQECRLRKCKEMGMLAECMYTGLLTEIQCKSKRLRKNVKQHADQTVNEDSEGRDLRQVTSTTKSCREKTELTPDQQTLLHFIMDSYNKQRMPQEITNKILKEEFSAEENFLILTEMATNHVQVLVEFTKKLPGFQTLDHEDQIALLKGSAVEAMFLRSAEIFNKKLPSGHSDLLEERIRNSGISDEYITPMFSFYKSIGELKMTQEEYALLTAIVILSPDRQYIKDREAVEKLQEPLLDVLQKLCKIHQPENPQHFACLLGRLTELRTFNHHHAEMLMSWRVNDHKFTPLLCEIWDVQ
Experiment: AlphaScreen assay of FXR agonist activity in vitro: effect on binding between human farnesol receptor protein and its coactivator (SRC1-2)
Assay type: biochemical
Conditions: hFXR 100 nM, peptide bSRC1-2 50 nM, 2 hr incubation at room temperature
Experimental: FXR agonist activity in vitro for the chemicals prepared in the above examples is measured.
AlphaScreen-based assays are performed with a hexahistidine detection kit manufactured by Perkins-Elmer, for measuring the effect of chemical compounds on the binding between human farnesol receptor protein and its coactivator (SRC1-2), the method is shown as follows:
1) Preparing a mixture comprising human farnesol receptor protein hFXR (100 nM, 15 μL/well), peptide bSRC1-2 (50 nM, 15 μL/well), 10× AlphaScreen buffer solution (15 μL/well and DI water (60 μL/well), and then transferring 105 μL/well of the mixture to a 96-well plate; 2) Diluting the chemicals prepared in the above examples by twice gradient 12×, with 15 μL/well; 3) Adding donor beads and acceptor beads, 30 μL/well in total; (attention: the beads are light-sensitive) 4) Incubating in dark at room temperature for 2 hr; 5) Transferring 40 μL/well of the mixture to a 384-well plate with 3 replicates, and then centrifuging at 1000 rpm for 1 min, to make liquid mixed well underneath the wells. (attention: photopathic operation); 6) In a dark room, reading the plate (by Homogeneous luminescent immunoassay system) to obtain EC50 with a GraphPad Prism5 software.

| EC50 [nM] | Compound |
| --- | --- |
| < 100 | O=C(O)c1cc2cc(N3CCC4(CC(OCc5c(-c6c(Cl)cccc6Cl)noc5C5CC5)C4)C3)ccc2o1 (stereo not drawn) [Example 29] |
| 100 to 1000 | O=C(O)c1cc2ccc(N3CCC4(CC(OCc5c(-c6c(Cl)cccc6Cl)noc5C5CC5)C4)C3)cc2s1 (stereo not drawn) [Example 30, 6-(2-((5-cyclopropyl-3-(2,6-dichlorophenyl)isoxazol-4-yl)methoxy)-6-azaspiro[3.4]octan-6-yl) benzothiophene-2-carboxylic Acid] |
| < 100 | O=C(O)c1nsc2cc(N3CCC4(CC(OCc5c(-c6c(Cl)cccc6Cl)noc5C5CC5)C4)C3)ccc12 (stereo not drawn) [Example 31, 6-(2-((5-cyclopropyl-3-(2,6-dichlorophenyl)isoxazol-4-yl)methoxy)-6-azaspiro[3.4]octan-6-yl) benzo[d]isothiazole-3-carboxylic Acid] |
| 100 to 1000 | Cn1c(C(=O)O)cc2cc(N3CCC4(CC(OCc5c(-c6c(Cl)cccc6Cl)noc5C5CC5)C4)C3)ccc21 (stereo not drawn) [Example 32, 5-(2-((5-cyclopropyl-3-(2,6-dichlorophenyl)isoxazol-4-yl)methoxy)-6-azaspiro[3.4]octan-6-yl)-1-methyl-1H-indole-2-carboxylic Acid] |
| 100 to 1000 | Cn1cc(C(=O)O)c2ccc(N3CCC4(CC(OCc5c(-c6c(Cl)cccc6Cl)noc5C5CC5)C4)C3)cc21 (stereo not drawn) [Example 33, 6-(2-((5-cyclopropyl-3-(2,6-dichlorophenyl)isoxazol-4-yl)methoxy)-6-azaspiro[3.4]octan-6-yl)-1-methyl-1H-indole-3-carboxylic Acid] |
| 100 to 1000 | O=C(O)c1ccc2nc(N3CCC4(CC(OCc5c(-c6c(Cl)cccc6Cl)noc5C5CC5)C4)C3)ccc2c1 (stereo not drawn) [Example 34, 2-(2-((5-cyclopropyl-3-(2,6-dichlorophenyl)isoxazol-4-yl)methoxy)-6-azaspiro[3.4]octan-6-yl)quinolin-6-carboxylic Acid] |
| < 100 | O=C(O)c1cnc(N2CCC3(CC(OCc4c(-c5c(Cl)cccc5Cl)noc4C4CC4)C3)C2)cn1 (stereo not drawn) [Example 35, 5-(2-((5-cyclopropyl-3-(2,6-dichlorophenyl)isoxazol-4-yl)methoxy)-6-azaspiro[3.4]octan-6-yl)pyrazine-2-carboxylic Acid] |
| 100 to 1000 | O=C(O)c1cccc(N2CCC3(CC(OCc4c(-c5c(Cl)cccc5Cl)noc4C4CC4)C3)C2)n1 (stereo not drawn) [Example 36, 6-(2-((5-cyclopropyl-3-(2,6-dichlorophenyl)isoxazol-4-yl)methoxy)-6-azaspiro[3.4]octan-6-yl)pyridine-2-carboxylic Acid] |
| 100 to 1000 | O=C(O)c1ccc(N2CCC3(CC(OCc4c(-c5c(Cl)cccc5Cl)noc4C4CC4)C3)C2)c(F)c1 (stereo not drawn) [Example 37, 4-(2-((5-cyclopropyl-3-(2,6-dichlorophenyl)isoxazol-4-yl)methoxy)-6-azaspiro[3.4]octan-6-yl)-3-fluorobenzoic Acid] |
| 100 to 1000 | O=C(O)c1ccc2nc(N3CCC4(CC(OCc5c(-c6c(F)cccc6F)noc5C5CC5)C4)C3)sc2c1 (stereo not drawn) [Example 38] |
| 100 to 1000 | O=C(O)c1ccc2nc(N3CCC4(CC(OCc5c(-c6c(F)cccc6F)noc5C5CC5)C4)C3)oc2c1 (stereo not drawn) [Example 39, 2-(2-((5-cyclopropyl-3-(2,6-difluorophenyl)isoxazol-4-yl)methoxy)-6-azaspiro[3.4]octan-6-yl) benzo[d]oxazole-6-carboxylic Acid] |
| < 100 | O=C(O)c1ccc2nc(N3CCc4cc(OCc5c(-c6c(F)cccc6F)noc5C5CC5)ccc4C3)sc2c1 [Example 40, 2-(6-((5-cyclopropyl-3-(2,6-difluorophenyl)isoxazol-4-yl)methoxy)-3,4-dihydroisoquinolin-2(1H)-yl) benzo[d]thiazole-6-carboxylic Acid] |
| 100 to 1000 | O=C(O)c1ccc2nc(N3CCC4(CC(OCc5c(-c6ccccc6C(F)(F)F)noc5C5CC5)C4)C3)sc2c1 (stereo not drawn) [Example 41, 2-(2-((5-cyclopropyl-3-(2-trifluoromethylphenyl)isoxazol-4-yl)methoxy)-6-azaspiro[3.4]octan-6-yl) benzo[d]thiazole-6-carboxylic Acid] |
| 100 to 1000 | O=C(O)c1ccc2nc(N3CCC4(CC(OCc5c(-c6ccccc6C(F)(F)F)noc5C5CC5)C4)C3)oc2c1 (stereo not drawn) [Example 42, 2-(2-((5-cyclopropyl-3-(2-trifluoromethylphenyl)isoxazol-4-yl)methoxy)-6-azaspiro[3.4]octan-6-yl) benzo[d]oxazole-6-carboxylic Acid] |
| < 100 | O=C(O)c1ccc2nc(N3CCc4cc(OCc5c(-c6ccccc6C(F)(F)F)noc5C5CC5)ccc4C3)sc2c1 [Example 43, 2-(6-((5-cyclopropyl-3-(2-trifluoromethylphenyl)isoxazol-4-yl)methoxy)-3,4-dihydroisoquinolin-2(1H)-yl) benzo[d]thiazole-6-carboxylic Acid] |
| < 100 | O=C(O)c1ccc(N2CCC3(CC(OCc4c(-c5c(Cl)cccc5Cl)noc4C4CC4)C3)C2)nc1 (stereo not drawn) [Example 44, 6-(2-((5-cyclopropyl-3-(2,6-dichlorophenyl)isoxazol-4-yl)methoxy)-6-azaspiro[3.4]octan-6-yl) pyridine-3-carboxylic Acid] |
| 100 to 1000 | O=C(O)c1ccc(N2CCC3(CC(OCc4c(-c5c(Cl)cccc5Cl)noc4C4CC4)C3)C2)cn1 (stereo not drawn) [Example 45] |
| < 100 | O=C(O)c1ccc(N2CCC3(CC(OCc4c(-c5c(Cl)cccc5Cl)noc4C4CC4)C3)C2)nn1 (stereo not drawn) [Example 46, 6-(2-((5-cyclopropyl-3-(2,6-dichlorophenyl)isoxazol-4-yl)methoxy)-6-azaspiro[3.4]octan-6-yl) pyridazine-3-carboxylic Acid] |
| 100 to 1000 | CS(=O)(=O)NC(=O)c1ccc2nc(N3CCC4(CC(OCc5c(-c6c(Cl)cccc6Cl)noc5C5CC5)C4)C3)sc2c1 (stereo not drawn) [Example 47, 2-(2-((5-cyclopropyl-3-(2,6-dichlorophenyl)isoxazol-4-yl)methoxy)-6-azaspiro[3.4]octan-6-yl)-N-(methylsulfonyl)benzo[d]thiazole-6-carboxamide] |
| 100 to 1000 | O=C(O)c1ccc2nc(N3CCC(COCc4c(-c5c(Cl)cccc5Cl)noc4C4CC4)CC3)sc2c1 [Example 48] |
| 100 to 1000 | (S)-2-(2-((5-cyclopropyl-3-(2,6-dichlorophenyl)isoxazol-4-yl)methoxy)-7-(fluromethyl)-6-azaspiro[3.4]octan-6-yl)-4-methoxybenzo[d]thiazole-6-carboxylic Acid [Example 20] |
